Data taken from patent US9586928B2 (The Scripps Research Institute, priority 2011, dated 2017).

Legend:
RORα = biological target: T1, RORα (Homo sapiens, UniProt P35398); assay: Gal4-RORα LBD / UAS luciferase cotransfection assay; type: cell-based; conditions: 10 μM
T1 construct: expressed in transfected cells; host or cells: HEK293T
T1 sequence (P35398 272-510 limits assumed): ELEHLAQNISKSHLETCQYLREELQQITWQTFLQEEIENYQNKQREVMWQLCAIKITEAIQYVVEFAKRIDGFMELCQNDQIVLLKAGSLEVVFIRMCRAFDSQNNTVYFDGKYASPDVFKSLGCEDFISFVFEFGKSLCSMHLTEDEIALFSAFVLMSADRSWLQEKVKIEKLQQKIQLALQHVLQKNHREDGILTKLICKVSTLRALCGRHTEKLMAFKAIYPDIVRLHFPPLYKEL

RORγ = biological target: T2, RORγ (Homo sapiens, UniProt P51449); assay: Gal4-RORγ LBD / UAS luciferase cotransfection assay; type: cell-based; conditions: 10 μM
T2 construct: expressed in transfected cells; host or cells: HEK293T
T2 sequence (P51449 269-508 limits assumed): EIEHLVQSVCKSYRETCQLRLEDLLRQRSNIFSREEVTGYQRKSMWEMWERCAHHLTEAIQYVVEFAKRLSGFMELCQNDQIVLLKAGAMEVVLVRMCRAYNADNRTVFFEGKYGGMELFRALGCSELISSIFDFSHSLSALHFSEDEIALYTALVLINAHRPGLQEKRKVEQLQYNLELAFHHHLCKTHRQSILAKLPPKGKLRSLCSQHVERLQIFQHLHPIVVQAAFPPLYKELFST

VP16 = assay: Gal4 DBD-VP16 / UAS luciferase control assay; type: cell-based; conditions: 10 μM
LXR = biological target: T3, LXR (Homo sapiens, UniProt Q13133); assay: Gal4-LXRα / UAS luciferase cotransfection assay; type: cell-based; conditions: 10 μM
T3 sequence (Q13133 209-447 limits assumed): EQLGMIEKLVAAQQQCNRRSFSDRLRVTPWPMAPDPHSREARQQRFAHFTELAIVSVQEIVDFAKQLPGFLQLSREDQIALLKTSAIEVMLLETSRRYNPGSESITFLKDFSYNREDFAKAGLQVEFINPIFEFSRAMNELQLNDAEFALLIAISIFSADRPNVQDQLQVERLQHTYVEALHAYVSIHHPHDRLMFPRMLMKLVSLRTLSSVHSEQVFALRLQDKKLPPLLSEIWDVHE

GST-RORγ = biological target: T4, GST-RORγ (Homo sapiens, UniProt P51449); assay: RORγ scintillation proximity (SPA) radioligand binding assay, displacement of [3H]-T0901317; conditions: 1 μM compound (Table 2D); read-out: RORγ SPA % bound = % radiolabel bound
T4 construct: 1 μg of GST-RORγ-LBD, 5 nM of [3H]T1317 as radioligand
T4 sequence (P51449 269-508 limits assumed): T2 sequence (P51449 269-508 limits assumed)

Row | remaining activity at 1 µM (GST-RORγ) [%] | SMILES | RORα repression, fold change over DMSO (RORα) [fold change over DMSO] | RORγ repression, fold change over DMSO (RORγ) [fold change over DMSO] | VP16 repression, fold change over DMSO (VP16) [fold change over DMSO] | LXR activation, fold change over DMSO (LXR) [fold change over DMSO]
1 |  | OCCN1CCN(Cc2ccc(-c3ccc(C(O)(C(F)(F)F)C(F)(F)F)cc3)cc2)CC1 [Compound 2, 1,1,1,3,3,3-Hexafluoro-2-(4′-((4-(2-hydroxyethyl)piperazin-1-yl)methyl)-[1,1′-biphenyl]-4-yl)propan-2-ol] | 1.3 | 0.9 | 0.9 | 1.1
2 |  | OC(c1ccc(-c2ccc(CN3CCN(CCc4ccccc4)CC3)cc2)cc1)(C(F)(F)F)C(F)(F)F [Compound 11, 1,1,1,3,3,3-Hexafluoro-2-(4′-((4-phenethylpiperazin-1-yl)methyl)-[1,1′-biphenyl]-4-yl)propan-2-ol] | 0.5 | 0.5 | 0.35 | 1
3 |  | OC(c1ccc(-c2ccc(CN3CCN(c4ccccc4)CC3)cc2)cc1)(C(F)(F)F)C(F)(F)F [Compound 14, 1,1,1,3,3,3-Hexafluoro-2-(4′-((4-phenylpiperazin-1-yl)methyl)-[1,1′-biphenyl]-4-yl)propan-2-ol] | 0.4 | 0.05 | 0.4 | 5
4 |  | O=C(C1CCCO1)N1CCN(Cc2ccc(-c3ccc(C(O)(C(F)(F)F)C(F)(F)F)cc3)cc2)CC1 (stereo not shown) [Compound 16, (4-((4′-(1,1,1,3,3,3-Hexafluoro-2-hydroxypropan-2-yl)-[1,1′-biphenyl]-4-yl)methyl)piperazin-1-yl)(tetrahydrofuran-2-yl)methanone] | 0.8 | 0.6 | 0.6 | 1.4
5 |  | OC(c1ccc(-c2ccc(CN3CCN(Cc4cccs4)CC3)cc2)cc1)(C(F)(F)F)C(F)(F)F [Compound 19, 1,1,1,3,3,3-Hexafluoro-2-(4′-((4-(thiophen-2-ylmethyl)piperazin-1-yl)methyl)-[1,1′-biphenyl]-4-yl)propan-2-ol] | 0.75 | 0.5 | 0.4 | 1.5
6 |  | OC(c1ccc(-c2ccc(CN3CCN(Cc4cc5cc(F)ccc5[nH]4)CC3)cc2)cc1)(C(F)(F)F)C(F)(F)F [Compound 20, 1,1,1,3,3,3-Hexafluoro-2-(4′-((4-((5-fluoro-1H-indol-2-yl)methyl)piperazin-1-yl)methyl)-[1,1′-biphenyl]-4-yl)propan-2-ol] | 0.1 | 0.05 | 0.1 | 2.5
7 |  | OC(c1ccc(-c2ccc(CN3CCN(CC4COc5ccccc5O4)CC3)cc2)cc1)(C(F)(F)F)C(F)(F)F (stereo not shown) [Compound 21, 2-(4′-((4-((2,3-Dihydrobenzo[b][1,4]dioxin-2-yl)methyl)piperazin-1-yl)methyl)-[1,1′-biphenyl]-4-yl)-1,1,1,3,3,3-hexafluoropropan-2-ol] | 0.45 | 0.35 | 0.35 | 0.7
8 |  | CCCNC(=O)N1CCN(Cc2ccc(-c3ccc(C(O)(C(F)(F)F)C(F)(F)F)cc3)cc2)CC1 [Compound 22, 4-((4′-(1,1,1,3,3,3-Hexafluoro-2-hydroxypropan-2-yl)-[1,1′-biphenyl]-4-yl)methyl)-N-propylpiperazine-1-carboxamide] | 0.5 | 0.4 | 0.4 | 1.8
9 |  | O=C(Nc1ccccc1)N1CCN(Cc2ccc(-c3ccc(C(O)(C(F)(F)F)C(F)(F)F)cc3)cc2)CC1 [Compound 23, 4-((4′-(1,1,1,3,3,3-Hexafluoro-2-hydroxypropan-2-yl)-[1,1′-biphenyl]-4-yl)methyl)-N-phenylpiperazine-1-carboxamide] | 0.9 | 0.5 | 0.55 | 2
10 |  | O=C(NCc1ccccc1)N1CCN(Cc2ccc(-c3ccc(C(O)(C(F)(F)F)C(F)(F)F)cc3)cc2)CC1 [Compound 24, N-Benzyl-4-((4′-(1,1,1,3,3,3-hexafluoro-2-hydroxypropan-2-yl)-[1,1′-biphenyl]-4-yl)methyl)piperazine-1-carboxamide] | 0.5 | 0.25 | 0.25 | 1.3
11 |  | CCC(=O)N1CCN(Cc2ccc(-c3ccc(C(O)(C(F)(F)F)C(F)(F)F)cc3)cc2)CC1 [Compound 25, 1-(4-((4′-(1,1,1,3,3,3-Hexafluoro-2-hydroxypropan-2-yl)-[1,1′-biphenyl]-4-yl)methyl)piperazin-1-yl)propan-1-one] | 0.7 | 0.45 | 0.5 | 1
12 |  | O=C(c1ccccc1)N1CCN(Cc2ccc(-c3ccc(C(O)(C(F)(F)F)C(F)(F)F)cc3)cc2)CC1 [Compound 26, (4-((4′-(1,1,1,3,3,3-Hexafluoro-2-hydroxypropan-2-yl)-[1,1′-biphenyl]-4-yl)methyl)piperazin-1-yl)(phenyl)methanone] | 0.9 | 0.8 | 0.7 | 2
13 | 10 | CCCCC(=O)N1CCN(Cc2ccc(-c3ccc(C(O)(C(F)(F)F)C(F)(F)F)cc3)cc2)CC1 [Example 158, 1-(4-((4′-(1,1,1,3,3,3-hexafluoro-2-hydroxypropan-2-yl)-[1,1′-biphenyl]-4-yl)methyl)piperazin-1-yl)pentan-1-one] |  |  |  | 
14 | 77 | OC(c1ccc(-c2ccc(CN3CCN(Cc4ccncc4)CC3)cc2C(F)(F)F)cc1)(C(F)(F)F)C(F)(F)F [Example 160, 1,1,1,33,33-hexafluoro-2-(4′-((4-(pyridin-4-ylmethyl)piperazin-1-yl)methyl)-2′-(trifluoromethyl)-[1,1′-biphenyl]-4-yl)propan-2-ol] |  |  |  | 
15 | 95 | N#Cc1cc(-c2ccc(C(O)(C(F)(F)F)C(F)(F)F)cc2)ccc1CN1CCN(Cc2ccncc2)CC1 [Example 161, 4′-(1,1,1,3,3,3-hexafluoro-2-hydroxypropan-2-yl)-4-((4-(pyridin-4-ylmethyl)piperazin-1-yl)methyl)-[1,1′-biphenyl]-3-carbonitrile] |  |  |  | 
16 | 10 | OC(c1ccc(-c2cccc(CC3CCCN(Cc4ccncc4)C3)c2)cc1)(C(F)(F)F)C(F)(F)F (stereo not shown) [Example 163, 1,1,1,3,3,3-hexafluoro-2-(3′-((1-(pyridin-4-ylmethyl)piperidin-3-yl)methyl)-[1,1′-biphenyl]-4-yl)propan-2-ol] |  |  |  | 
17 | 10 | OC(c1ccc(-c2ccc(CC3CCN(Cc4ccncc4)CC3)cc2)cc1)(C(F)(F)F)C(F)(F)F [Example 164, 1,1,1,3,3,3-hexafluoro-2-(4′-((1-(pyridin-4-ylmethyl)piperidin-4-yl)methyl)-[1,1′-biphenyl]-4-yl)propan-2-ol] |  |  |  | 

Row | SMILES | remaining activity at 1 µM (GST-RORγ) [%] | RORα repression, fold change over DMSO (RORα) [fold change over DMSO] | RORγ repression, fold change over DMSO (RORγ) [fold change over DMSO] | VP16 repression, fold change over DMSO (VP16) [fold change over DMSO] | LXR activation, fold change over DMSO (LXR) [fold change over DMSO]
18 | O=C(Cc1c[nH]cn1)N1CCN(Cc2ccc(-c3ccc(C(O)(C(F)(F)F)C(F)(F)F)cc3)cc2)CC1 [Example 159, 1-(4-((4′-(1,1,1,3,3,3-hexafluoro-2-hydroxypropan-2-yl)-[1,1′-biphenyl]-4-yl)methyl)piperazin-1-yl)-2-(1H-imidazol-4-yl)ethanone] | 80 |  |  |  | 
19 | OC(c1ccc(-c2ccc3c(c2)CCN3C2CCN(Cc3ccncc3)CC2)cc1)(C(F)(F)F)C(F)(F)F [Example 162, 1,1,1,3,3,3-hexafluoro-2-(4-(1-(1-(pyridin-4-ylmethyl)piperidin-4-yl)indolin-5-yl)phenyl)propan-2-ol] | 15 |  |  |  | 
